Earlier results as cited in US20100056426A1, “USE OF IRON CHELATOR FOR THE TREATMENT OF MYOCARDIAL INFARCTION” (NOVARTIS AG, priority 2007, published 2010).
Read-outs that look alike come from different tables or passages of the source.

How the values were obtained:
[1] = model systems; Hershko et al., Blood 2001
[2] = humans; Nisbet Brown et al., Lancet 2003

For `O=C(O)c1ccc(-n2nc(-c3ccccc3O)nc2-c2ccccc2O)cc1` [4-[3,5-bis-(2-hydroxyphenyl)-[1,2,4]-triazol-1-yl]benzoic acid], the “selective removal of iron” value [1] is given as “effective in the selective removal of iron” and the “selective removal of iron” value [2] is given as “effective in the selective removal of iron”.
